How the values were obtained:
[1] = system: GSEF bacteraemia; settings: cited from earlier work
[2] = Teicoplanin trough concentration and Bayesian estimation of AUC24/fAUC24 in patients; type: in vivo, human
Method: The primary PK/PD parameter for this study was the ratio of the estimated 24-h free-drug area under the curve to the MIC (fAUC24/MICEtest). The estimation of fAUC24 was based on total Cmin measured during the maintenance phase of therapy (at least 3 days after treatment initiation). Our institutional dosing protocol recommends a loading dose of 8–10 mg/kg administered three times approximately every 12 h within the first 48 h for patients with normal renal function, followed by a maintenance dose of 6 mg/kg once daily from Day 3. This loading regimen is intended to rapidly achieve therapeutic concentrations, allowing Cmin values measured during the maintenance phase to serve as a reliable surrogate for drug exposure. Teicoplanin doses were routinely proposed by a pharmacist using therapeutic drug monitoring (TDM) with a target Cmin for teicoplanin set at 15–30 mg/L in line with guideline recommendations,[22] though actual dosing was determined at the discretion of the attending physician.
The estimation of fAUC24 involved a multi-step process. First, the total drug AUC over a 24-h interval during the maintenance phase (AUC24) was calculated for each patient. This was based on individual total clearance (CLtotal) estimated from the observed Cmin through Bayesian analysis. This analysis employed a previously developed population PK (PopPK) model for Japanese patients constructed by Nakayama et al.[23] This PopPK model was based on data from 120 Japanese adult inpatients with MRSA infections and incorporates creatinine clearance and body weight as covariates, making it applicable to our study population. […] Based on the estimated CLtotal for each patient, the AUC24 was calculated as AUC24 (mg·h/L) = daily maintenance dose (mg)/CLtotal (L/h).[13],[24] Second, to account for the impact of hypoalbuminaemia, a patient-specific unbound fraction (fu) was estimated based on a validated model developed specifically for teicoplanin in a Japanese patient population by Yano et al.[25] The model predicts the fu using the patient’s ALB concentration with the following formula: […]
where ALB is expressed in g/dL.
Finally, the free AUC24 (fAUC24) was estimated by multiplying the total AUC24 by fu. The resulting fAUC24/MICEtest ratio was used for all subsequent PK/PD analyses.
PK parameters for each patient were determined using the TDM software, BMs-Pod (ver 8.06, https://bmspod.web.fc2.com/).[26],[27]

[3] = cited from earlier work
From the text: The PK/PD parameter most commonly associated with the clinical efficacy of teicoplanin against MRSA is the ratio of the AUC to the MIC, referred to as AUC/MIC.[10],[11] The target AUC/MIC ratio for teicoplanin against MRSA is approximately 600–900, and achieving this target is known to improve therapeutic outcomes.[12],[13] Furthermore, teicoplanin is a highly protein-bound drug (approximately 90%), and it is the unbound (free) fraction that exerts antimicrobial activity. In critically ill patients, conditions such as hypoalbuminaemia can alter protein binding, potentially affecting the free d ...

[4] = system: GSEF bacteraemia; assay: Clinical outcomes of teicoplanin-treated GSEF bacteraemia (retrospective cohort); type: in vivo, human; settings: for Treatment failure: 30-day all-cause mortality or microbiological failure
Method: We conducted a retrospective, single-centre, observational cohort study at The University of Tokyo Hospital between 1 April 2009 and 30 May 2023. The University of Tokyo’s ethics review board approved the study protocol (approval no. 2023138NI) and waived the requirement for written informed consent. The study was conducted in accordance with the ethical standards of the 1964 Declaration of Helsinki and its subsequent amendments. Patients with at least one GSEF-positive blood culture who received teicoplanin during the study period were deemed eligible. The exclusion criteria were as follows: lack of storage of microbiological samples, lack of teicoplanin trough concentration (Cmin), age under 18 years, renal replacement therapy or initiation of teicoplanin treatment more than 72 h after infection. GSEF bacteraemia was defined as one or more blood cultures positive for E. faecium resistant to ampicillin, and susceptible to teicoplanin and vancomycin, accompanied by signs or symptoms of infection consistent with suspected infection sites, as established in previous studies.[9],[15],[16] Polymicrobial infections were included in the analysis. For patients with a history of multiple treatments for GSEF bacteraemia, only the first treatment was considered.
The primary outcome, treatment failure, was defined as a composite of (i) 30-day all-cause mortality or (ii) microbiological failure, defined as persistent bacteraemia (a positive follow-up blood culture obtained >72 h after initiation of appropriate therapy) in patients with at least one follow-up blood culture).[28],[29] In patients without follow-up blood cultures, microbiological failure was not assessed, and treatment failure was determined solely based on 30-day all-cause mortality. […] Secondary outcomes included 90-day all-cause mortality (death within 90 days of the first positive GSEF blood culture), in-hospital mortality (death occurring during hospitalization), relapse (recurrence of GSEF bacteraemia after negative blood cultures following GSEF treatment) and readmission within 90 days of the first positive GSEF blood culture. Relapse was defined as recurrence of GSEF bacteraemia after documented microbiological clearance, confirmed by at least one negative follow-up blood culture. All clinical outcomes and PK parameter estimation (including AUC calculation) were conducted by an infectious disease pharmacist with access to treatment details and patient clinical courses. MIC measurements were performed independently by separate investigators and were integrated only after clinical outcome evaluation was completed. Safety outcomes included (i) incidence of AKI, diagnosed according to the KDIGO criteria (defined as 1.5× increase in sCr from baseline within 7 days or ≥0.3 mg/dL increase within 48 h of baseline following teicoplanin initiation)[30]; (ii) incidence of liver injury, defined as AST ≥ 90 U/L or ALT ≥ 126 U/L (≥3 times the upper limit during teicoplanin treatment)[31]; and (iii) other adverse events associated with teicoplanin use for GSEF bacteraemia.[15]
Continuous variables, expressed as medians with IQRs, were compared between the treatment success and treatment failure groups using the Mann–Whitney U-test. Categorical variables were compared between the two groups using the χ² test or Fisher’s exact test, as appropriate. To identify predictors of treatment failure, several steps were taken for the logistic regression analysis. First, classification and regression tree (CART) analysis was used to identify the optimal cut-off value for the fAUC24/MICEtest associated with treatment failure, according to the previous vancomycin PK/PD study.[32] This created a dichotomous variable for the PK/PD parameter. Next, a multivariable logistic regression model was constructed to assess the independent effect of the fAUC24/MICEtest on treatment failure. […]

[5] = in vivo; cited from earlier work
Method: The estimation of fAUC24 involved a multi-step process. First, the total drug AUC over a 24-h interval during the maintenance phase (AUC24) was calculated for each patient. This was based on individual total clearance (CLtotal) estimated from the observed Cmin through Bayesian analysis. This analysis employed a previously developed population PK (PopPK) model for Japanese patients constructed by Nakayama et al.[23] This PopPK model was based on data from 120 Japanese adult inpatients with MRSA infections and incorporates creatinine clearance and body weight as covariates, making it applicable ...

[6] = system: glycopeptide-susceptible Enterococcus faecium (GSEF); assay: Teicoplanin MIC by automated broth microdilution (MicroScan WalkAway-96 Plus); type: cell-based; settings: all isolates; measurement range 2, 4, 8, 16 mg/L
Method: Blood culture specimens were processed using the BACTEC FX system (Becton Dickinson Microbiology Systems, Sparks, MD, USA). Species identification of bacterial isolates recovered from blood cultures was performed using the MALDI Biotyper 1.0 (Bruker Daltonics, Bremen, Germany). Antimicrobial susceptibilities to ampicillin and teicoplanin were tested using the MicroScan WalkAway system (Beckman Coulter Japan, Tokyo, Japan) and interpreted according to the Clinical and Laboratory Standards Institute (M100-S26) breakpoints.[21] Polymicrobial bacteraemia was defined as cases where one or more microorganisms, in addition to E. faecium, were isolated from the same blood culture and were not classified as contaminants according to the CDC criteria.[16]
For this study, teicoplanin MIC determinations were performed on archived isolates using a commercial automated broth microdilution method with the MicroScan WalkAway-96 Plus system (MICWalkAway) (Beckman Coulter) and gradient diffusion method (MICEtest) (Etest, bioMérieux) following the manufacturer’s instructions. […] In cases where disagreement occurred among all three operators, the MIC was retested and determined by the representative operator, taking the initial results into consideration.

[7] = system: glycopeptide-susceptible Enterococcus faecium (GSEF); assay: Teicoplanin MIC by gradient diffusion method (Etest) on archived blood isolates; type: cell-based; settings: for MICEtest: median (IQR), Etest
Method: For this study, teicoplanin MIC determinations were performed on archived isolates using a commercial automated broth microdilution method with the MicroScan WalkAway-96 Plus system (MICWalkAway) (Beckman Coulter) and gradient diffusion method (MICEtest) (Etest, bioMérieux) following the manufacturer’s instructions. Due to a change in the MIC measurement range during the study period, all isolates were remeasured using the MicroScan WalkAway-96 Plus system for consistency. The MICWalkAway measurement range was 2, 4, 8, and 16 mg/L. The MICEtest results were reviewed and confirmed independently by three clinical microbiologists who were blinded to the clinical outcomes of the patients from whom the isolates were obtained. In cases where disagreement occurred among all three operators, the MIC was retested and determined by the representative operator, taking the initial results into consideration.

In the case of teicoplanin, the effectiveness versus vancomycin ([1]; GSEF bacteraemia treatment) is given as “non-inferior to vancomycin”, the “incidence of acute kidney injury (AKI) versus vancomycin” value ([1]; in vivo) is given as “significantly lower incidence of acute kidney injury (AKI)” and the treatment success ratio ([1]; patients with GSEF bacteraemia) is given as 64.9%. For the same substance, the Cmin ([2]; human, in vivo) was 18.3 (15.0–23.1) mg/L, the “inter-individual variability (CV%) for clearance” value ([2]; human, in vivo) was 39.2% and the “inter-individual variability (CV%) for distribution rate parameter K12” value ([2]; human, in vivo) was 0.1%. The “inter-individual variability (CV%) for distribution rate parameter α” value ([2]; human, in vivo) was 4.7%, the “inter-individual variability (CV%) for steady-state volume of distribution” value ([2]; human, in vivo) was 43.8% and the “median Cmin in both groups” value ([2]; human, in vivo) was “approximately 18 mg/L”. For the same substance, the Cmin ([2]; total trough concentration, maintenance phase, treatment failure group (n = 18), median (IQR)) was 18.4 (9.70–23.1) mg/L, the protein bound [3] was “approximately 90%” and the “overall 30-day mortality rate” value ([4]; 6/76) was 7.9%. The “treatment failure, overall” value ([4]; 18 of 76 patients) was 23.7%, the 30-day mortality ([4]; fAUC24/MICEtest < 462 (n = 49)) was 6 (12.2) n (%) and the 90-day mortality ([4]; fAUC24/MICEtest < 462 (n = 49)) was 17 (34.7) n (%). The In-hospital mortality ([4]; fAUC24/MICEtest < 462 (n = 49)) was 12 (24.5) n (%), the “Readmission within 90 days after bacteraemia” value ([4]; fAUC24/MICEtest < 462 (n = 49)) was 22 (44.9) n (%) and the Relapse ([4]; fAUC24/MICEtest < 462 (n = 49)) was 7 (14.3) n (%). The Treatment failure ([4]; fAUC24/MICEtest < 462 (n = 49)) was 17 (34.7) n (%), the 30-day mortality ([4]; fAUC24/MICEtest ≥ 462 (n = 27)) was 0 (0.0) n (%) and the 90-day mortality ([4]; fAUC24/MICEtest ≥ 462 (n = 27)) was 3 (11.1) n (%). For the same substance, the In-hospital mortality ([4]; fAUC24/MICEtest ≥ 462 (n = 27)) was 2 (7.4) n (%), the “Readmission within 90 days after bacteraemia” value ([4]; fAUC24/MICEtest ≥ 462 (n = 27)) was 8 (29.6) n (%) and the Relapse ([4]; fAUC24/MICEtest ≥ 462 (n = 27)) was 3 (11.1) n (%). The Treatment failure ([4]; fAUC24/MICEtest ≥ 462 (n = 27)) was 1 (3.7) n (%), the “Odds ratio (95% CI) of treatment failure for fAUC24/MICEtest ≥ 462, multivariable” value ([4]; logistic regression adjusted for CCI, immunosuppressed state, Pitt bacteraemia score) was 0.099 (0.005–0.562) and the “Odds ratio (95% CI) of treatment failure for fAUC24/MICEtest ≥ 462, univariable” value ([4]; logistic regression, univariable) was 0.072 (0.004–0.389). For the same substance, the “incidence of treatment failure” value ([4]; patients with fAUC24/MICEtest < 462) was 34.7%, the “incidence of treatment failure” value ([4]; patients with fAUC24/MICEtest ≥ 462) was 3.7% and the “inter-individual variability (CV%) for clearance (CL)” value [5] was 22.1%. For the same substance, the “inter-individual variability (CV%) for volume of distribution (V)” value [5] was 26.7%, the residual variability [5] was 15.6% and the MICWalkAway [6] was at most 2 mg/L. For the same substance, the “proportion of isolates with MIC ≤ 0.5 mg/L” value ([7]; isolates of the cohort) was 84.2%, the MICEtest ([7]; treatment failure group (n = 18)) was 0.50 (0.35–0.50) mg/L and the MICEtest ([7]; treatment success group (n = 58)) was 0.25 (0.13–0.50) mg/L.

Source: article PMC12368495, “Pharmacokinetic/pharmacodynamic parameters of teicoplanin for predicting clinical outcome of glycopeptide-susceptible Enterococcus faecium bacteraemia” (JAC-Antimicrobial Resistance, 2025)
